# Tests used:
# Type in all cases: functional
# [1] = Cytotoxicity against human UO31 cells after 48 hrs by SRB assay; conditions: UO-31, 48 h
# [2] = tested on: TK-10; test: Cytotoxicity against human TK10 cells assessed as cell growth at 10^-7 M after 48 hrs by SRB assay relative to control; conditions: TK-10, 48 h, read-out: Activity
# [3] = tested on: NCI-H23; test: Cytotoxicity against human NCI-H23 cells assessed as cell growth at 10^-7 M after 48 hrs by SRB assay relative to control; conditions: NCI-H23, 48 h, read-out: Activity
# [4] = tested on: NCI-H322M; test: Cytotoxicity against human NCI-H322M cells after 48 hrs by SRB assay
# [5] = tested on: CAKI-1; test: Cytotoxicity against human Caki1 cells assessed as cell growth at 10^-7 M after 48 hrs by SRB assay relative to control; conditions: CAKI-1, 48 h, read-out: Activity
# [6] = Cytotoxicity against human OVCAR3 cells assessed as cell growth at 10^-7 M after 48 hrs by SRB assay relative to control; conditions: OVCAR-3, 48 h, read-out: Activity
# [7] = tested on: SK-MEL-5; test: Cytotoxicity against human SK-MEL-5 cells assessed as cell growth at 10^-8 M after 48 hrs by SRB assay relative to control; conditions: SK-MEL-5, 48 h, read-out: Activity
# [8] = tested on: RXF 393; test: Cytotoxicity against human RXF393 cells assessed as cell growth at 10^-6 M after 48 hrs by SRB assay relative to control; conditions: RXF 393, 48 h, read-out: Activity
# [9] = tested on: MDA-MB-468; test: Cytotoxicity against human MDA-MB-468 cells assessed as cell growth at 10^-4 M after 48 hrs by SRB assay relative to control; conditions: MDA-MB-468, 48 h, read-out: Activity
# [10] = tested on: A549; test: Cytotoxicity against human A549 cells assessed as cell growth at 10^-8 M after 48 hrs by SRB assay relative to control; conditions: A549, 48 h, read-out: Activity
# [11] = tested on: TK-10; test: Cytotoxicity against human TK10 cells assessed as cell growth at 10^-8 M after 48 hrs by SRB assay relative to control; conditions: TK-10, 48 h, read-out: Activity
# [12] = tested on: U-251; test: Cytotoxicity against human U251 cells assessed as cell growth at 10^-6 M after 48 hrs by SRB assay relative to control; conditions: U-251, 48 h, read-out: Activity
# [13] = tested on: COLO 205; test: Cytotoxicity against human COLO205 cells assessed as cell growth at 10^-8 M after 48 hrs by SRB assay relative to control; conditions: COLO 205, 48 h, read-out: Activity
# [14] = tested on: HL-60(TB); test: Cytotoxicity against human HL-60(TB) cells assessed as cell growth at 10^-4 M after 48 hrs by SRB assay relative to control; conditions: HL-60, 48 h, read-out: Activity
# [15] = tested on: RXF 393; test: Cytotoxicity against human RXF393 cells assessed as cell growth at 10^-7 M after 48 hrs by SRB assay relative to control; conditions: RXF 393, 48 h, read-out: Activity
# [16] = tested on: MDA-MB-231; test: Cytotoxicity against human MDA-MB-231 cells after 48 hrs by SRB assay; conditions: MDA-MB-231, 48 h
# [17] = Cytotoxicity against human Hs 578T cells assessed as cell growth at 10^-6 M after 48 hrs by SRB assay relative to control; conditions: read-out: Activity
# [18] = tested on: BT-549; test: Cytotoxicity against human BT549 cells assessed as cell growth at 10^-7 M after 48 hrs by SRB assay relative to control; conditions: BT-549, 48 h, read-out: Activity
# [19] = tested on: SNB-75; test: Cytotoxicity against human SNB75 cells assessed as cell growth at 10^-6 M after 48 hrs by SRB assay relative to control; conditions: SNB-75, 48 h, read-out: Activity
# [20] = tested on: COLO 205; test: Cytotoxicity against human COLO205 cells after 48 hrs by SRB assay; conditions: COLO 205, 48 h; for CC50: read-out: LC50 (the source's name)
# [21] = tested on: SK-MEL-28; test: Cytotoxicity against human SK-MEL-28 cells assessed as cell growth at 10^-6 M after 48 hrs by SRB assay relative to control; conditions: SK-MEL-28, 48 h, read-out: Activity
# [22] = tested on: LOX IMVI; test: Cytotoxicity against human LOXIMVI cells assessed as cell growth at 10^-8 M after 48 hrs by SRB assay relative to control; conditions: read-out: Activity
# [23] = tested on: SNB-19; test: Cytotoxicity against human SNB19 cells assessed as cell growth at 10^-4 M after 48 hrs by SRB assay relative to control; conditions: SNB-19, 48 h, read-out: Activity
# [24] = tested on: SN12C; test: Cytotoxicity against human SN12C cells assessed as cell growth at 10^-6 M after 48 hrs by SRB assay relative to control; conditions: read-out: Activity
# [25] = tested on: NCI-H23; test: Cytotoxicity against human NCI-H23 cells assessed as cell growth at 10^-4 M after 48 hrs by SRB assay relative to control; conditions: NCI-H23, 48 h, read-out: Activity
# [26] = tested on: KM12; test: Cytotoxicity against human KM12 cells assessed as cell growth at 10^-4 M after 48 hrs by SRB assay relative to control; conditions: KM12, 48 h, read-out: Activity
# [27] = tested on: K562; test: Cytotoxicity against human K562 cells assessed as cell growth at 10^-6 M after 48 hrs by SRB assay relative to control; conditions: K562, 48 h, read-out: Activity
# [28] = Cytotoxicity against human UACC62 cells assessed as cell growth at 10^-4 M after 48 hrs by SRB assay relative to control; conditions: UACC-62, 48 h, read-out: Activity
# [29] = Cytotoxicity against human EKVX cells assessed as cell growth at 10^-4 M after 48 hrs by SRB assay relative to control; conditions: read-out: Activity
# [30] = tested on: MDA-MB-468; test: Cytotoxicity against human MDA-MB-468 cells after 48 hrs by SRB assay; conditions: MDA-MB-468, 48 h
# [31] = tested on: NCI-H23; test: Cytotoxicity against human NCI-H23 cells after 48 hrs by SRB assay; conditions: NCI-H23, 48 h
# [32] = tested on: SK-MEL-28; test: Cytotoxicity against human SK-MEL-28 cells assessed as cell growth at 10^-8 M after 48 hrs by SRB assay relative to control; conditions: SK-MEL-28, 48 h, read-out: Activity
# [33] = tested on: NCI-H460; test: Cytotoxicity against human NCI-H460 cells assessed as cell growth at 10^-8 M after 48 hrs by SRB assay relative to control; conditions: NCI-H460, 48 h, read-out: Activity
# [34] = tested on: HCC 2998; test: Cytotoxicity against human HCC2998 cells assessed as cell growth at 10^-6 M after 48 hrs by SRB assay relative to control; conditions: HCC 2998, 48 h, read-out: Activity
# [35] = tested on: HOP-62; test: Cytotoxicity against human HOP62 cells after 48 hrs by SRB assay; conditions: HOP-62, 48 h
smiles,measurement,setting,value
CC(C)=CCC[C@H](C)c1ccc(C)c2c1OCN(CC1CCNCC1)C2,GI50,[1],12.8 µM
same,LC50,[1],58.2 µM
same,TGI,[1],27.3 µM
same,growth at 0.1 µM,[2],113%
same,growth at 0.1 µM,[3],94%
same,GI50,[4],19.4 µM
same,LC50,[4],77.8 µM
same,TGI,[4],38.8 µM
same,growth at 0.1 µM,[5],108%
same,growth at 0.1 µM,[6],105%
same,growth at 0.01 µM,[7],99%
same,growth at 1 µM,[8],125%
same,growth at 100 µM,[9],-80%
same,growth at 0.01 µM,[10],95%
same,growth at 0.01 µM,[11],118%
same,growth at 1 µM,[12],100%
same,growth at 0.01 µM,[13],109%
same,growth at 100 µM,[14],-73%
same,growth at 0.1 µM,[15],112%
same,GI50,[16],12.5 µM
same,LC50,[16],64.1 µM
same,TGI,[16],28.3 µM
same,growth at 1 µM,[17],104%
same,growth at 0.1 µM,[18],87%
same,growth at 1 µM,[19],85%
same,GI50,[20],1860 nM
same,TGI,[20],3.41 µM
same,CC50,[20],6.25 µM
same,growth at 1 µM,[21],101%
same,growth at 0.01 µM,[22],100%
same,growth at 100 µM,[23],-82%
same,growth at 1 µM,[24],102%
same,growth at 100 µM,[25],-71%
same,growth at 100 µM,[26],-90%
same,growth at 1 µM,[27],93%
same,growth at 100 µM,[28],-92%
same,growth at 100 µM,[29],-17%
same,GI50,[30],5.01 µM
same,LC50,[30],53.1 µM
same,TGI,[30],18.4 µM
same,GI50,[31],15.7 µM
same,LC50,[31],72 µM
same,TGI,[31],33.6 µM
same,growth at 0.01 µM,[32],107%
same,growth at 0.01 µM,[33],108%
same,growth at 1 µM,[34],104%
same,GI50,[35],14.8 µM
same,LC50,[35],55.6 µM
same,TGI,[35],28.7 µM
CC(C)=CCC[C@H](C)c1ccc(C)c(CNCC2CCNCC2)c1O,GI50,[1],3.58 µM
same,LC50,[1],> 25 µM
same,TGI,[1],12.3 µM
same,growth at 0.1 µM,[2],92%
same,growth at 0.1 µM,[3],94%
same,GI50,[4],7.02 µM
same,LC50,[4],> 25 µM
same,TGI,[4],> 25 µM
same,growth at 0.1 µM,[5],94%
same,growth at 0.1 µM,[6],104%
same,growth at 0.01 µM,[7],93%
same,growth at 1 µM,[8],95%
same,growth at 100 µM,[9],-90%
same,growth at 0.01 µM,[10],101%
same,growth at 0.01 µM,[11],92%
same,growth at 1 µM,[12],94%
same,growth at 0.01 µM,[13],106%
same,growth at 100 µM,[14],-63%
same,growth at 0.1 µM,[15],85%
same,GI50,[16],3.48 µM
same,LC50,[16],19.3 µM
same,TGI,[16],8.19 µM
same,growth at 1 µM,[17],97%
same,growth at 0.1 µM,[18],89%
same,growth at 1 µM,[19],89%
same,GI50,[20],3980 nM
same,TGI,[20],7.57 µM
same,CC50,[20],14.4 µM
same,growth at 1 µM,[21],98%
same,growth at 0.01 µM,[22],95%
same,growth at 100 µM,[23],21%
same,growth at 1 µM,[24],93%
same,growth at 100 µM,[25],54%
same,growth at 100 µM,[26],-77%
same,growth at 1 µM,[27],91%
same,growth at 100 µM,[28],-81%
same,growth at 100 µM,[29],35%
same,GI50,[30],3.33 µM
same,LC50,[30],14.1 µM
same,TGI,[30],6.86 µM
same,GI50,[31],> 25 µM
same,LC50,[31],> 25 µM
same,TGI,[31],> 25 µM
same,growth at 0.01 µM,[32],102%
same,growth at 0.01 µM,[33],101%
same,growth at 1 µM,[34],99%
same,GI50,[35],4.12 µM
same,LC50,[35],17.6 µM
same,TGI,[35],8.5 µM

# From ChEMBL document CHEMBL3390836, “Mannich- and LedererManasse-based analogues of the natural product S-(+)-curcuphenol as cancer proliferation and migration inhibitors” (Medchemcomm, 2012)
